In data set [1] the test system is glioma cells. The note with it: Ishiuchi et al., 2002; cited from earlier work.
For data set [2], the system named is rat C6 glioma cell line. Nature of the data set: Determination of cell death by propidium iodide fluorescence (flow cytometry). It counts as cell-based. The note with it: 200 μM and 400 μM TMP, 24 hours; p<0.05 vs control; FIG. 1. The procedure:
(§1) The rat C6 glioma cell line was purchased from the Food Industry Research and Development Institute, Taiwan. The cell culture within the tubes was transferred into a 15 ml centrifugation tube and centrifuged at 900 rpm for 3 minutes. Resulted supernatant was removed and 4 ml 10% FBS-DMEM was added to the centrifugation tube and sufficiently mixed with the cell pellet. The cells were counted and cultured in a 24-well plate (2×10^4 cells per well) for subsequent in vitro experiments.
(§2) The cultured C6 glioma cells were treated with TMP (Fluka, F-87915) at final concentrations of 50 μM, 100 μM, 200 μM, and 400 μM for 24 hours.
The degree of damage to glioma cells was measured as the intensity of propidium iodide (PI) fluorescence. PI is a fluorescent dye that binds DNA, with an excitation wavelength of 485 nm and an emission wavelength of 620 nm. When a cell is damaged, the permeability of the cell membrane is increased and PI can enter the cell to bind DNA.
The TMP-treated glioma cells were treated with 5 ng/ml PI (Molecular Probes, P-1304) for 1 hour, and then washed with 0.1 M PBS. The intensity of PI fluorescence was read by flow cytometry (FACSort).

In data set [3] the test system is glioma cells implanted in frontal cortex of Sprague-Dawley rats. Put plainly: Survival time of rats implanted with glioma cells. It counts as in vivo, rat. The note with it: 0.4 mg subcutaneous twice a day from the 8th day following implantation. The procedure: (§3) Sprague-Dawley (S.D.) rats obtained from the Animal Center of National Yang-Ming University were kept in the following conditions: 12 hours of artificial lightening per day; 22±2° C. air conditioning; sufficient water and food. Eight-week old female rats, weighing 250 to 300 g, were used in the experiments.
(§4) The rats were anesthetized with chloride hydrate (400 mg/Kg, i.p.) and immobilized on a stereotaxic apparatus (Narishige, Japan). The skin on the head was cut with scissors to expose the skull. Bregma was found as the reference point for the location of microinjection (three-dimensional orientation point: A: 0.7 mm, L; 2.0 mm, H: 2.0 mm). The location was marked with a pen, and the skull at the location was drilled with a drill. Glioma cells (10^6 cells) were injected (2 μl/3 mins; total 10 μl) into the frontal cortex of the left brain of the rats with a microinjector.
(§5) The rats were divided into two groups. […] The rats of the TMP group received TMP treatment (0.4 mg, subcutaneous injection, twice a day) from the 8th day following the implantation. The survival days of rats of the two groups were recorded.

Data set [4] has as its system rat C6 glioma cell line. Nature of the data set: Determination of cell cycle (PI staining, flow cytometry). Type of data set: cell-based. The note with it: 400 μM TMP, 24 hours; p<0.05 vs control; FIG. 3. The protocol:
as §1, §2
The TMP-treated glioma cells were treated with trypsin/EDTA (Biochrom AG, L-2153), shaken off, collected in a 15 ml centrifugation tube, and centrifuged at 900 rpm for 3 minutes. The resulting supematant was removed and 1 ml PI solution (50 μg/ml PI, 0.1% sodium citrate, and 0.1% Triton X-100) was added. After one hour of dark incubation at room temperature, the intensity of PI fluorescence was read by flow cytometry (FACSort). In the G2/M phase, DNA has been replicated, and thus the intensity of PI fluorescence of cells in the G2/M phase should be two times of that of cells in the G1 phase.
(Flow cytometry measures light scatter and fluorescence of single cells or particles in a stream.)

The conditions of data set [5]: Pang et al., 1996; cited from earlier work.
Data set [6] has as its system glioma cells implanted in frontal cortex of Sprague-Dawley rats. Nature of the data set: Activity of glioma by micro positron emission tomography (18F-FDG). It counts as in vivo. The note with it: 15th day following implantation; one rat; TMP from the 8th day; highly activated tumor still exists in control rat; FIG. 6 D to F. The protocol: as §3, §4, §5
To determine the activity of glioma cells in the rats, the activity profiles of the tumors were obtained by micro positron emission tomography (micro PET) on the 8th and 15th day following the implantation of glioma cells. […]

In data set [7] the test system is neurons. The note with it: through protecting mitochondria and inhibiting free radical generation; Shih et al, 2002; cited from earlier work.
For data set [8], the system named is rat C6 glioma cell line. Put plainly: Determination of Ca2+ permeability (Fura-2 AM, glutamate-induced Ca2+ increase). Type of data set: cell-based. The note with it: 50 μM to 400 μM TMP, 24 hours; 200 μM glutamate for 20 seconds; p<0.05 vs control; FIG. 2. The procedure:
as §1, §2
The TMP-treated glioma cells were washed with running buffer for three times, put in a 5 μM Fura-2 AM solution for 30 minutes, and treated with 200 μM glutamate for 20 seconds. The change of Ca^2+ concentration within glioma cells was observed on a fluorescence microscope (IX-70, Olympus, Japan).

The conditions of data set [9]: Tsai and Liang, 2001; cited from earlier work.

As to `C[C@]12N[C@H](Cc3ccccc31)c1ccccc12` [MK801], the “proliferation of glioma cells” value in [1] was “can effectively inhibit the proliferation of glioma cells”.

With `Cc1nc(C)c(C)nc1C` [TMP, tetramethylpyrazine], in data set [2], the “damage to glioma cells (intensity of PI fluorescence)” value was “resulted in glioma cell death”. Also, the “survival time following implantation, half of the rats of the TMP group” value in data set [3] (FIG. 4(B)) is reported as 40 days. Also, the “survival time following implantation, all rats of the TMP group” value in data set [3] (control rats died after 15 to 22 days, FIG. 4) was “at least 22 days”. The “ratio of cells in the G2/M phase” value in [4] is “effectively reduced the ratio of cells in the G2/M phase”. For the same molecule, the “increase of the concentration of calcium” value in [5] is listed as “can inhibit the increase of the concentration of calcium”. Further, the “micro PET image of tumor activity” value in data set [6] is reported as “no image of a highly activated tumor”. For the same molecule, the “excitotoxicity to neurons induced by kainite” value in [7] is listed as “can reduce the excitotoxicity to neurons induced by kainite”. Further, the “Ca2+ concentration within glioma cells resulting from treatment with glutamate” value in data set [8] is recorded as “effectively reduced Ca^2+ concentration within glioma cells”. The “crossing of the blood-brain barrier” value in data set [9] is “can cross the blood-brain barrier”.

(Values after patent US7091205B2, “Use of tetramethylpyrazine in the treatment of brain tumor” (priority 2004, dated 2006).)
